We go through three compounds from PMC11418636, “Evaluating the potential of non‐immunosuppressive cyclosporin analogs for targeting Toxoplasma gondii cyclophilin: Insights from structural studies” (Protein Science : A Publication of the Protein Society, 2024).

Where two headings read alike, the source gives them in different places.

Assay [1] addresses T1, TgCyp23 (Toxoplasma gondii, UniProt B9PS61). The assay can be described thus: Isothermal titration calorimetry (ITC) binding to TgCyp23. Particulars: 20°C, 50 mM HEPES pH 8.0, 100 mM NaCl, error SEM of triplicate. On the procedure:
Isothermal titration calorimetry (ITC) experiments were performed on a PEAQ‐ITC instrument from MicroCal (Northampton, MA) as previously described (Bombardi et al., [2022]; Conter et al., [2021]; Favretto et al., [2023]). Stock solutions of dhCsA, NIM811, and Alisporivir were prepared in 100% EtOH and successively diluted in a buffer of 50 mM HEPES, pH 8.0, 100 mM NaCl at a final concentration of 8 μM. […] The analog solutions were titrated with 2 μL (total 19 injections) of a 66 μM TgCyp23 solution supplemented with 0.1% EtOH. All the experiments were executed at an operating temperature of 20°C and a time gap of 150 s between each injection. Protein and ligand samples were filtered and degassed thoroughly before the experiments. Reference experiments were performed in the absence of a ligand or a protein, and the heat of dilution was subtracted from each experiment. Each titration set was repeated as a triplicate and the error was estimated as the SEM. The data were analyzed using the software MicroCal Origin, and the apparent dissociation constants Kd, the enthalpy changes (ΔH), and entropy changes (ΔS) were obtained.

Assay [2] concerns the target T1, TgCyp23. The assay can be described thus: Circular dichroism (CD) thermal denaturation of TgCyp23 with ligands. The assay is classed as binding. The note with it: melting temperature of TgCyp23 with saturating ligand, 224 nm; TgCyp23 alone 52 ± 1. On the procedure:
Circular dichroism (CD) assays were conducted on a Jasco J‐1500 spectropolarimeter equipped with a Peltier temperature controller following the protocol described in (Bombardi et al., [2020]; Favretto et al., [2023]; Trande et al., [2019]; ). Briefly, denaturation profiles in the presence of saturating concentrations of ligands were obtained by monitoring the loss of secondary structure of TgCyp23 at 224 nm in the temperature range of 15–100°C, with a scan rate of 1.5°C/min. The protein concentration was 0.2 mg/mL, and the buffer used was 50 mM HEPES at pH 8.0 with 100 mM NaCl.
On the technique in general: CD spectra are sensitive to the conformation of chiral molecules.

Assay [3] has as its target T1, TgCyp23. The assay can be described thus: Stopped-flow rapid kinetics of binding to TgCyp23. The note with it: association rate constant, 20°C, pH 7.4, 0.5 μM TgCyp23, ligands 1 to 7 μM. On the procedure:
Stopped‐flow experiments were performed on an SX‐18 stopped‐flow apparatus (Applied Photophysics, Leatherhead, UK) at 20°C in 50 mM Hepes, 150 mM NaCl, 1 mM DTT (pH 7.4). Fluorescence emission was measured using a 320 nm cutoff filter (λex = 280 nm). The concentration of TgCyp23 after mixing was 0.5 μM, and the concentration of ligands after mixing ranged from 1 to 7 μM. For each trace, data from 4 to 6 injections were averaged and fitted with a single exponential function, excluding data points in the dead‐time of the stopped flow (<2 ms).

The target of assay [4] is T1, TgCyp23. The assay can be described thus: PPIase inhibition, protease-coupled assay with AAPF peptide. The assay is classed as biochemical. Particulars: PPIase activity, TgCyp23 7 nM, ligand 0 to 30 nM, 10 min on ice; error SEM of triplicate. On the procedure: PPIase activity was determined using the synthetic peptide N‐succinyl‐Ala‐Ala‐Pro‐Phe‐p‐nitroanilide (AAPF) based on the protease‐coupled assay as described in (Favretto et al., [2023]; Kofron et al., [1991]). In inhibition assays, TgCyp23 (7 nM) was incubated for 10 min on ice in the presence of increasing concentrations of the three analogs, ranging from 0 to 30 nM, before the addition of the AAPF peptide. In all experiments, the slope of the catalyzed reaction was corrected for spontaneous thermal cis–trans isomerization in the presence of chymotrypsin alone.
The residual enzymatic activity was estimated from the initial velocities of each catalyzed reaction and expressed as a percentage (%) of the original enzymatic activity (Astegno et al., [2017]). Residual enzymatic activities were plotted against ligand concentrations, and the obtained curve was analyzed to determine the IC50 value for each tested ligand. The experiments were repeated in triplicate, and the error was estimated as the standard error of the mean (SEM).

Assay [5] concerns the target T1, TgCyp23. Kind of assay: Differential scanning calorimetry (DSC) of TgCyp23 with ligands. Format: binding. Particulars: melting temperature of 70 μM TgCyp23 with ligand; TgCyp23 alone 49 ± 1. As to the method: Differential scanning calorimetry (DSC) experiments were conducted using a nano‐DSC (TA instrument) with a cell volume of 300 μL (Favretto et al., [2023]). […] Data were fitted according to a two‐state model using NanoAnalyze software (TA instrument).
For orientation: Differential scanning calorimetry records heat flow against a reference as temperature is scanned.

Assay [6] deals with CypA. Particulars: Ptak et al., 2008, read-out: Ki, inhibition of CypA PPIase activity, cited from earlier work.

T1 sequence (B9PS61 entry or part of it): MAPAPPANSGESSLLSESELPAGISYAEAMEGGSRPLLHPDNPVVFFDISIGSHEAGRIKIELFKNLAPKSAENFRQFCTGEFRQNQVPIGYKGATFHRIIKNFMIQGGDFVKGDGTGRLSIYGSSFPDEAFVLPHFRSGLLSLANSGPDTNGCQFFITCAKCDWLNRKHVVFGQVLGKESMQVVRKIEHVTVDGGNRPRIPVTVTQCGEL

By Kd is commonly meant the equilibrium constant for the complex coming apart. High values mean lower affinity, low ones higher affinity. One may read the kon as a measure of how fast the partners come together. Read a low kon as slow association. As usually defined, the IC50 is the concentration that gives 50% inhibition. A higher IC50 goes with weaker potency. What is called Ki is the dissociation constant of the complex between target and ligand, obtained from inhibition or displacement. The compound `C/C=C/C[C@@H](C)[C@@H](O)[C@H]1C(=O)N[C@@H](CC)C(=O)N(C)[C@H](C)C(=O)N(CC)[C@@H](C(C)C)C(=O)N[C@@H](C(C)C)C(=O)N(C)[C@@H](CC(C)C)C(=O)N[C@@H](C)C(=O)N[C@H](C)C(=O)N(C)[C@@H](CC(C)C)C(=O)N(C)[C@@H](CC(C)C)C(=O)N(C)[C@@H](C(C)C)C(=O)N1C` [Alisporivir, MeAla-3-EtVal-4-Cyclosporin] came in with a Kd in assay [1] of 15 ± 3 nM. Further, the “Tm (CD)” value in assay [2] came to 59 ± 1 °C. Moreover, in assay [3], the kon was found to be 3.97e+06 ± 210000 M⁻¹ s⁻¹. Besides, in assay [4], half-maximal inhibition (IC50) required 0.77 ± 0.01 nM. Moreover, the “Tm (DSC)” value in assay [5] is 55 ± 1 °C. Also, in assay [6] (ref Coelmont et al., 2010, de Wilde et al., 2013, Gallay & Lin, 2013), the Ki is 0.34 nM.
As to `C/C=C/C[C@@H](C)[C@@H](O)[C@H]1C(=O)N[C@@H](CC)C(=O)N(C)CC(=O)N(C)[C@@H]([C@@H](C)CC)C(=O)N[C@@H](C(C)C)C(=O)N(C)[C@@H](CC(C)C)C(=O)N[C@@H](C)C(=O)N[C@H](C)C(=O)N(C)[C@@H](CC(C)C)C(=O)N(C)[C@@H](CC(C)C)C(=O)N(C)[C@@H](C(C)C)C(=O)N1C` [NIM811, MeIle-4-Cyclosporin], the Kd in assay [1] came out at 43 ± 10 nM. For the same compound, in assay [2], the “Tm (CD)” value worked out at 58 ± 1 °C. Also, the kon in assay [3] stood at 2.77e+06 ± 150000 M⁻¹ s⁻¹. This compound gave an IC50 in assay [4] of 0.85 ± 0.03 nM. Further, in assay [5], the “Tm (DSC)” value was found to be 56 ± 1 °C. Further, the Ki in assay [6] (ref Schiene-Fischer et al., 2022) is 2.1 nM.
`CCCC[C@@H](C)[C@@H](O)[C@H]1C(=O)N[C@@H](CC)C(=O)N(C)CC(=O)N(C)[C@@H](CC(C)C)C(=O)N[C@@H](C(C)C)C(=O)N(C)[C@@H](CC(C)C)C(=O)N[C@@H](C)C(=O)N[C@H](C)C(=O)N(C)[C@@H](CC(C)C)C(=O)N(C)[C@@H](CC(C)C)C(=O)N(C)[C@@H](C(C)C)C(=O)N1C` [dhCsA, Dihydrocyclosporin A] returned a Kd in assay [1] of 200 ± 92 nM. Besides, the “Tm (CD)” value in assay [2] came out at 57 ± 1 °C. Further, the kon in assay [3] was determined as 1.85e+06 ± 110000 M⁻¹ s⁻¹. Inhibition in assay [4] was half-maximal at 1.2 ± 0.2 nM (IC50). In addition, the “Tm (DSC)” value in assay [5] turned out to be 53 ± 1 °C.
